In patent US9809587B2, “Pesticidally active heterocyclic derivatives with sulphur containing substituents” (Syngenta Participations AG, priority 2014, dated 2017):

Tests used:
Assay type in all cases: in vivo
[1] = test system: Bemisia tabaci (Cotton White Fly); experiment: Bemisia tabaci (cotton white fly), sprayed cotton leaf discs; details: foliar, 144 h, application rate of 200 ppm, adult white flies on cotton leaf discs, 6 days after incubation
Description: Example B1: Bemisia tabaci (Cotton White Fly)
Cotton leaf discs were placed on agar in 24-well microtiter plates and sprayed with aqueous test solutions prepared from 10′000 ppm DMSO stock solutions. After drying the leaf discs were infested with adult white flies. The samples were checked for mortality 6 days after incubation.

[2] = test system: Diabrotica balteata (Corn Root Worm); experiment: Diabrotica balteata (corn root worm), sprayed maize sprouts; details: 96 h, application rate of 200 ppm, L2 larvae on maize sprouts, 4 days after infestation
Description: Example B2: Diabrotica balteata (Corn Root Worm)
Maize sprouts, placed on an agar layer in 24-well microtiter plates were treated with aqueous test solutions prepared from 10′000 ppm DMSO stock solutions by spraying. After drying, the plates were infested with L2 larvae (6 to 10 per well). The samples were assessed for mortality and growth inhibition in comparison to untreated samples 4 days after infestation.

[3] = test system: Euschistus heros (Neotropical Brown Stink Bug); experiment: Euschistus heros (neotropical brown stink bug), sprayed soybean leaf; details: 120 h, application rate of 200 ppm, N-2 nymphs on soybean leaf, 5 days after infestation
Description: Example B3: Euschistus heros (Neotropical Brown Stink Bug)
Soybean leaf on agar in 24-well microtiter plates were sprayed with aqueous test solutions prepared from 10′000 ppm DMSO stock solutions. After drying the leaf were infested with N-2 nymphs. The samples were assessed for mortality in comparison to untreated samples 5 days after infestation.

[4] = test system: Myzus persicae (Green Peach Aphid); experiment: Myzus persicae (green peach aphid), sprayed sunflower leaf discs; details: foliar, 144 h, application rate of 200 ppm, mixed ages on sunflower leaf discs, 6 days after infestation
Description: Example B4: Myzus persicae (Green Peach Aphid)
Sunflower leaf discs were placed on agar in a 24-well microtiter plate and sprayed with aqueous test solutions prepared from 10′000 ppm DMSO stock solutions. After drying, the leaf discs were infested with an aphid population of mixed ages. The samples were assessed for mortality 6 days after infestation.

[5] = test system: Plutella xylostella (Diamond Back Moth); experiment: Plutella xylostella (diamond back moth), treated artificial diet; details: 120 h, application rate of 200 ppm, L2 larvae on artificial diet, 5 days after infestation, read-out: effect in at least one of the two categories (mortality or growth inhibition)
Description: Example B6: Plutella xylostella (Diamond Back Moth)
24-well microtiter plates with artificial diet were treated with aqueous test solutions prepared from 10′000 ppm DMSO stock solutions by pipetting. After drying, the plates were infested with L2 larvae (10 to 15 per well). The samples were assessed for mortality and growth inhibition in comparison to untreated samples 5 days after infestation.
The following compounds gave an effect of at least 80% in at least one of the two categories (mortality or growth inhibition) at an application rate of 200 ppm: […]

[6] = test system: Spodoptera littoralis (Egyqptian Cotton Leaf Worm); experiment: Spodoptera littoralis (Egyptian cotton leaf worm), sprayed cotton leaf discs; details: foliar, 72 h, application rate of 200 ppm, L1 larvae on cotton leaf discs, 3 days after infestation
Description: Example B7: Spodoptera littoralis (Egyqptian Cotton Leaf Worm)
Cotton leaf discs were placed on agar in 24-well microtiter plates and sprayed with aqueous test solutions prepared from 10′000 ppm DMSO stock solutions. After drying the leaf discs were infested with five L1 larvae. The samples were assessed for mortality, anti-feedant effect, and growth inhibition in comparison to untreated samples 3 days after infestation. Control of Spodoptera littoralis by a test sample is when at least one of mortality, anti-feedant effect, and growth inhibition is higher than the untreated sample.

[7] = test system: Spodoptera littoralis (Egyqptian Cotton Leaf Worm); experiment: Spodoptera littoralis (Egyptian cotton leaf worm), compound in agar taken up by lettuce roots; details: 144 h, test rate of 12.5 ppm, uptake by lettuce roots from agar, 6 days after infestation, read-out: effect in at least one of the three categories (mortality, anti-feedancy, or growth inhibition)
Excerpt: Example B8: Spodoptera littoralis (Egyqptian Cotton Leaf Worm)
Test compounds were applied by pipette from 10′000 ppm DMSO stock solutions into 24-well plates and mixed with agar. Lettuce seeds were placed on the agar and the multi well plate was closed by another plate which contains also agar. After 7 days the roots have absorbed the compound and the lettuce has grown into the lid plate. The lettuce leafs were now cut off into the lid plate. Spodoptera eggs were pipetted through a plastic stencil on a humid gel blotting paper and the plate closed with it. The samples were assessed for mortality, anti-feedant effect and growth inhibition in comparison to untreated samples 6 days after infestation.
The following compounds gave an effect of at least 80% in at least one of the three categories (mortality, anti-feedancy, or growth inhibition) at a test rate of 12.5 ppm: […]

CCS(=O)(=O)c1cc(-c2cnc(Cl)nc2)cnc1-c1nc2cc(C(F)(F)F)ncc2n1C [Compound P10]
≥ 80%: mortality at 200 ppm [1]

CCS(=O)(=O)c1cc(-c2ncc(Cl)cc2Cl)cnc1-c1nc2cc(C(F)(F)F)ncc2n1C [Compound P44]
≥ 80%: mortality at 200 ppm [2] | mortality at 200 ppm [3] | mortality at 200 ppm [4] | percent effect (mortality or growth inhibition) at 200 ppm [5] | percent control (mortality, anti-feedant effect or growth inhibition) at 200 ppm [6] | percent control (mortality, anti-feedancy or growth inhibition) at 12.5 ppm [7]

CCS(=O)(=O)c1cc(-c2cncc(C)c2)cnc1-c1nc2cc(C(F)(F)F)ncc2n1C [Compound P45]
≥ 80%: mortality at 200 ppm [1] | mortality at 200 ppm [2] | mortality at 200 ppm [3] | mortality at 200 ppm [4] | percent effect (mortality or growth inhibition) at 200 ppm [5] | percent control (mortality, anti-feedant effect or growth inhibition) at 200 ppm [6]

CCS(=O)(=O)c1cc(-c2ccnc(C(F)(F)F)c2)cnc1-c1nc2cc(C(F)(F)F)ncc2n1C [Compound P46]
≥ 80%: mortality at 200 ppm [1] | mortality at 200 ppm [2] | mortality at 200 ppm [3] | mortality at 200 ppm [4] | percent effect (mortality or growth inhibition) at 200 ppm [5] | percent control (mortality, anti-feedant effect or growth inhibition) at 200 ppm [6] | percent control (mortality, anti-feedancy or growth inhibition) at 12.5 ppm [7]

CCS(=O)(=O)c1cc(-c2ncccc2C)cnc1-c1nc2cc(C(F)(F)F)ncc2n1C [Compound P50]
≥ 80%: mortality at 200 ppm [2] | mortality at 200 ppm [3] | mortality at 200 ppm [4] | percent effect (mortality or growth inhibition) at 200 ppm [5] | percent control (mortality, anti-feedant effect or growth inhibition) at 200 ppm [6] | percent control (mortality, anti-feedancy or growth inhibition) at 12.5 ppm [7]

CCS(=O)(=O)c1cc(-c2ncccc2C(F)(F)F)cnc1-c1nc2cc(C(F)(F)F)ncc2n1C [Compound P52]
≥ 80%: mortality at 200 ppm [2] | mortality at 200 ppm [3] | mortality at 200 ppm [4] | percent effect (mortality or growth inhibition) at 200 ppm [5] | percent control (mortality, anti-feedant effect or growth inhibition) at 200 ppm [6] | percent control (mortality, anti-feedancy or growth inhibition) at 12.5 ppm [7]

CCS(=O)(=O)c1cc(-c2ncc(C(F)(F)F)cc2F)cnc1-c1nc2cc(C(F)(F)F)ncc2n1C [Compound P54]
≥ 80%: mortality at 200 ppm [2] | mortality at 200 ppm [3] | mortality at 200 ppm [4] | percent effect (mortality or growth inhibition) at 200 ppm [5] | percent control (mortality, anti-feedant effect or growth inhibition) at 200 ppm [6] | percent control (mortality, anti-feedancy or growth inhibition) at 12.5 ppm [7]

CCS(=O)(=O)c1cc(-c2ccc(C)cn2)cnc1-c1nc2cc(C(F)(F)F)ncc2n1C [Compound P55]
≥ 80%: mortality at 200 ppm [2] | mortality at 200 ppm [3] | mortality at 200 ppm [4] | percent effect (mortality or growth inhibition) at 200 ppm [5] | percent control (mortality, anti-feedant effect or growth inhibition) at 200 ppm [6]

CCS(=O)(=O)c1cc(-c2cc(C)ccn2)cnc1-c1nc2cc(C(F)(F)F)ncc2n1C [Compound P57]
≥ 80%: mortality at 200 ppm [3] | mortality at 200 ppm [4] | percent effect (mortality or growth inhibition) at 200 ppm [5] | percent control (mortality, anti-feedant effect or growth inhibition) at 200 ppm [6] | percent control (mortality, anti-feedancy or growth inhibition) at 12.5 ppm [7]

CCS(=O)(=O)c1cc(-c2cccc(Cl)n2)cnc1-c1nc2cc(C(F)(F)F)ncc2n1C [Compound P59]
≥ 80%: mortality at 200 ppm [1] | mortality at 200 ppm [2] | mortality at 200 ppm [3] | mortality at 200 ppm [4] | percent effect (mortality or growth inhibition) at 200 ppm [5] | percent control (mortality, anti-feedant effect or growth inhibition) at 200 ppm [6] | percent control (mortality, anti-feedancy or growth inhibition) at 12.5 ppm [7]

CCS(=O)(=O)c1cc(-c2ccc(C#N)nc2)cnc1-c1nc2cc(C(F)(F)F)ncc2n1C [Compound P65]
≥ 80%: mortality at 200 ppm [2] | mortality at 200 ppm [3] | mortality at 200 ppm [4] | percent effect (mortality or growth inhibition) at 200 ppm [5] | percent control (mortality, anti-feedant effect or growth inhibition) at 200 ppm [6]

CCS(=O)(=O)c1cc(-c2cncc(C(F)(F)F)c2)cnc1-c1nc2cc(C(F)(F)F)ncc2n1C [Compound P66]
≥ 80%: mortality at 200 ppm [1] | mortality at 200 ppm [2] | mortality at 200 ppm [3] | mortality at 200 ppm [4] | percent effect (mortality or growth inhibition) at 200 ppm [5] | percent control (mortality, anti-feedant effect or growth inhibition) at 200 ppm [6]

CCS(=O)(=O)c1cc(-c2cccc3c2OC(F)(F)O3)cnc1-c1nc2cc(C(F)(F)F)ncc2n1C [Compound P72]
≥ 80%: mortality at 200 ppm [2] | mortality at 200 ppm [3] | mortality at 200 ppm [4] | percent effect (mortality or growth inhibition) at 200 ppm [5] | percent control (mortality, anti-feedant effect or growth inhibition) at 200 ppm [6] | percent control (mortality, anti-feedancy or growth inhibition) at 12.5 ppm [7]

CCS(=O)(=O)c1cc(-c2ccnc(Cl)c2)cnc1-c1nc2cc(C(F)(F)F)ncc2n1C [Compound P77]
≥ 80%: mortality at 200 ppm [1] | mortality at 200 ppm [2] | mortality at 200 ppm [3] | mortality at 200 ppm [4] | percent effect (mortality or growth inhibition) at 200 ppm [5] | percent control (mortality, anti-feedant effect or growth inhibition) at 200 ppm [6] | percent control (mortality, anti-feedancy or growth inhibition) at 12.5 ppm [7]

CCS(=O)(=O)c1cc(-c2cccnc2)cnc1-c1nc2cc(C(F)(F)F)ncc2n1C [Compound P80]
≥ 80%: mortality at 200 ppm [1] | mortality at 200 ppm [4] | percent effect (mortality or growth inhibition) at 200 ppm [5] | percent control (mortality, anti-feedant effect or growth inhibition) at 200 ppm [6]

CCS(=O)(=O)c1cc(-c2ccncc2)cnc1-c1nc2cc(C(F)(F)F)ncc2n1C [Compound P81]
≥ 80%: mortality at 200 ppm [1] | mortality at 200 ppm [3] | mortality at 200 ppm [4] | percent effect (mortality or growth inhibition) at 200 ppm [5]

CCS(=O)(=O)c1cc(-c2ccsc2)cnc1-c1nc2cc(C(F)(F)F)ncc2n1C [Compound P82]
≥ 80%: mortality at 200 ppm [2] | mortality at 200 ppm [4] | percent effect (mortality or growth inhibition) at 200 ppm [5] | percent control (mortality, anti-feedant effect or growth inhibition) at 200 ppm [6] | percent control (mortality, anti-feedancy or growth inhibition) at 12.5 ppm [7]

CCS(=O)(=O)c1cc(-c2cccc(OC)n2)cnc1-c1nc2cc(C(F)(F)F)ncc2n1C [Compound P95]
≥ 80%: mortality at 200 ppm [2] | mortality at 200 ppm [3] | mortality at 200 ppm [4] | percent effect (mortality or growth inhibition) at 200 ppm [5] | percent control (mortality, anti-feedant effect or growth inhibition) at 200 ppm [6]

CCS(=O)(=O)c1cc(-n2ccc(C#N)n2)cnc1-c1nc2cc(C(F)(F)F)ncc2n1C [Compound P98]
≥ 80%: mortality at 200 ppm [2] | mortality at 200 ppm [3] | mortality at 200 ppm [4] | percent effect (mortality or growth inhibition) at 200 ppm [5] | percent control (mortality, anti-feedant effect or growth inhibition) at 200 ppm [6]

CCS(=O)(=O)c1cc(-c2nccc(C)n2)cnc1-c1nc2cc(C(F)(F)F)ncc2n1C [Compound P103]
≥ 80%: mortality at 200 ppm [1] | mortality at 200 ppm [2] | mortality at 200 ppm [3] | mortality at 200 ppm [4] | percent effect (mortality or growth inhibition) at 200 ppm [5] | percent control (mortality, anti-feedant effect or growth inhibition) at 200 ppm [6] | percent control (mortality, anti-feedancy or growth inhibition) at 12.5 ppm [7]

CCS(=O)(=O)c1cc(-c2ccnc(Cl)n2)cnc1-c1nc2cc(C(F)(F)F)ncc2n1C [Compound P105]
≥ 80%: mortality at 200 ppm [2] | mortality at 200 ppm [4] | percent effect (mortality or growth inhibition) at 200 ppm [5] | percent control (mortality, anti-feedant effect or growth inhibition) at 200 ppm [6] | percent control (mortality, anti-feedancy or growth inhibition) at 12.5 ppm [7]
